Measurements from patent US7538220B2, “Intermediates in the preparation of homocamptothecin analogs” (University of Pittsburgh - of the Commonwealth System of …, priority 1999, dated 2009).
Several values for one entry are separate records, joined by “and”; a condition that tells them apart may be missing. Identical values can stand only once. Like-named read-outs stand apart in the source and are kept apart here. Blank lines part the entries; values can stand above or below the molecule they belong to.

Key:
[1] = Lactone ring stability in whole human blood by HPLC; conditions: for Percent Lactone in Human Blood after 3 Hours of Incubation: pH 7.4, 37° C. (Table 4)
Procedure: All experiments were conducted at pH 7.4 and 37° C.
(§1) HPLC solvents were from Fisher Scientific.

[2] = PBS solution containing HSA; cited from earlier work
[3] = cited from earlier work
[4] = Lactone ring stability in mouse blood by HPLC; conditions: for Ratio of Lactone Level Mouse/Human: blood, 3 hours of incubation; for Percent Lactone in Mouse Blood after 3 Hours of Incubation: pH 7.4, 37° C.
Procedure: The hydrolysis kinetics of camptothecins in the presence of different blood components were determined by a quantitative C18 reversed-phase high-performance liquid chromatography (HPLC) assay modified from methodologies described previously in the literature cited above. The preparation of whole blood and fractionated blood samples was carried out as described previously. Crystallized HSA of high purity (>97%) from Sigma Chemical (St. Louis, Mo.) was used. HSA stock solutions were prepared in PBS buffer with a final pH of 7.40±0.05. HSA concentrations were determined by UV absorbance at 278 nm using an extinction coefficient of 39,800 M^−1 cm^−1 (Porter, 1992). All other agents were reagent grade and were used without further purification. High purity water provided by a Milli-Q UV PLUS purification system (Bedford, Mass.) was utilized in all experiments. HPLC solvents were from Fisher Scientific. Human plasma and red blood cells were obtained from Central Kentucky Blood Center. […] Blood from mice was collected in heparinized tubes and stored at 5-10° C. until use.
HPLC assays were performed either on a Waters Alliance 2690 HPLC system equipped with a temperature-controlled autosampler and Waters 474 scanning fluorescence detector. A second HPLC system was composed of a Waters HPLC system composed of 501 HPLC pumps, 717 Plus temperature-controlled autosampler and 470 scanning fluorescence detector. The HPLC assay procedures used for the homosilatecans are summarized below. Solvent A consisted of acetonitrile and Solvent B was 2% triethylammonium acetate, pH 5.5, with a flow rate of 1 ml/min. For DB-38 an isocratic elution was used: 33% Solvent A; 67% Solvent B; λex:345 nm and λem:518 nm. For DB-81 an isocratic elution was used: 56% Solvent A; 44% Solvent B; and λex:375 nm and λem:444 nm. For DB-90 an isocratic elution was used: 41% Solvent A; 59% Solvent B; λex:412 nm and λem:526 nm. For DB-91 an isocratic elution of 42% Solvent A, 58% Solvent B, and λex:392 nm and λem:562 nm.
To determine drug stability in whole blood, whole blood was incubated at 37° C. for 30 min and pH determined. Blood pH was adjusted to 7.4+/−0.5 using either 0.1 M KOH or 0.1 M HCl. Blood samples were incubated at 37° C. for 30 min and pH remeasured to ensure that it is within the range before an individual assay was started. Aliquots of blood (2 ml each) were removed and placed in three disposable glass test tubes and the tubes were incubated at 37° C. […] Incubation at 37° C. was continued and 150 μl aliquots were removed at different time points and added to 600 μl of cold methanol (−20° C.) in an eppendorf tube. The tube was then vortexed for 10 sec and centrifuged in a table top microcentrifuge at 8000 rpm for 45 sec. The Supernatant was removed and placed in an autosampler vial and the vial quickly added to the autosampler maintained at 4° C. The sample was analyzed immediately on the HPLC set-up. The data analysis was as described for the drug in PBS only samples.

[5] = whole human blood; cited from earlier work
[6] = Fluorescence anisotropy titration, equilibrium binding to DMPC small unilamellar vesicles; type: physicochemical; conditions: electroneutral DMPC vesicles, PBS pH 7.4, 37° C.; K values subject to 10% uncertainty
Procedure: (§2) As a consequence of the brilliant fluorescence emissions from the newly synthesized homosilatecans (a summary of the spectral parameters can be found in Table 1), the lipid bilayer adsorption isotherms summarized in FIG. 4 were relatively free from any background signal. The method of fluorescence anisotropy titration was used to construct the adsorption isotherms. The experiments were conducted at drug concentrations of 1 μM in PBS buffer (37° C.). […] Because of the potential of the lactone ring of the homosilatecans and camptothecins to hydrolyze in PBS, anisotropy values at each lipid concentration were determined immediately (approx. 1 min.) following the addition of the lactone form of each agent to the liposome suspension as to minimize any possibility of conversion to the carboxylate form. Using drug concentrations of 1 μM and long pass filters to isolate emitted light from background signal (that is, scattered exciting light and extraneous fluorescence signal resulting from the possible presence of impurities), signal levels from drugs dissolved in PBS buffer were typically 99.97% in the absence of membrane and greater than 98% in the presence of membrane. Adsorption isotherms were used to determine overall association constants for the homosilatecan, silatecan, and camptothecin drugs. Overall association constants are defined as: K=[AB]/[AF][L] where [AB] represents the concentration of bound drug, [AF] represents the concentration of free drug, and [L] represents the total lipid concentration in the vesicle suspension. This equation is valid when the concentration of free lipid is approximately equal to the concentration of total lipid (that is, the concentration of free lipid is in significant excess over the concentration of bound drug). Provided this condition is satisfied, K may be determined from the inverse of the slope of a double reciprocal plot. In such a double reciprocal plot, 1/fraction of the total drug bound is plotted vs. 1/lipid concentration, with a y-intercept value of 1 (for a system displaying binding site homogeneity). Such double-reciprocal plots for the associations of the new homosilatecans analogs (both lactone and carboxylate forms) with DMPC and DMPG small unilamellar vesicle (SUV) preparations were linear with good correlation coefficients.
(§3) The studies summarized in Table 2 examine the structural basis of homosilatecan associations for lipid bilayers. Two types of membranes were included in these studies which were conducted under near physiological conditions of pH and temperature; these membranes include fluid-phase and electroneutral L-α-dimyristoylphosphatidyl-choline (DMPC); and fluid-phase and negatively-charged L-α-dimyristoylphosphatidylglycerol (DMPG). DMPC and DMPG have identical chain length but the charges on their head groups differ.
(§4) In the studies of Table 2, binding isotherms were constructed using the method of fluorescence anisotropy titration as discussed above, and K values were determined from the slopes of the double-reciprocal plots. The K values are subject to 10% uncertainty. One of the most striking features of the data contained in Table 2 is the strong modulation which can be achieved through the creation of A,B,E-ring modified camptothecins (for example, the homosilatecans known as DB-38, DB-90, and DB-91) or B,E-ring modified camptothecins (for example, the homosilatecan known as DB-81). Homosilatecans containing either a sole substitution at the 7 position or dual substitution at the 7 and 10 positions have been created and found to display very high lipophilicities. Included in Table 2 are camptothecin compounds (topotecan and camptothecin). For DB-81, the lipophilicity for DMPC membranes relative to corresponding value for topotecan increases over 1,400-fold. Data for these agents were included to show the highly lipophilic nature of the new homocamptothecins relative to compounds such as topotecan and camptothecin. […]

[7] = Fluorescence anisotropy titration, equilibrium binding to DMPG small unilamellar vesicles; type: physicochemical; conditions: negatively charged DMPG vesicles, PBS pH 7.4, 37° C.; K values subject to 10% uncertainty
Procedure: as §2, §3, §4

[8] = Lactone ring stability in PBS by HPLC; type: physicochemical; conditions: PBS pH 7.4, 3 hours, 37° C., 1 μM
Procedure: FIG. 12 contrasts the improved stabilities of four novel homosilatecans of the present invention with their corresponding silatecan structure containing the α-hydroxylactone functionality. All the experiments of FIG. 12 were conducted in PBS at 37° C.
as §1
To determine the stabilities of homosilatecans in PBS, an aliquot of each of the homosilatecans in DMSO was added to phosphate buffered saline (PBS), pH 7.4 in a HPLC autosampler vial maintained at 37° C. in a water bath to result in final drug concentration of 1 μM. The drug-containing vial was quickly transferred to the autosampler maintained at 37° C. and aliquots analyzed at various time points. All the determinations were done in triplicate. The data was collected and analyzed using Waters Millenium software. The fraction of lactone was calculated using the peak area of lactone and carboxylate peak and using the lactone/carboxylate ratio.

[9] = system: MDA-MB-435 tumorigenic metastatic human breast cancer cells; experiment: Cytotoxicity, sulphorrhodamine B (SRB) assay; type: cell-based; conditions: MDA-MB-435, 72 hr exposure, SRB assay, without HSA, read-out: IC50 (w/o HSA)
Procedure: Cytotoxicity measurements were conducted using MDA-MB-435 tumorigenic human breast cancer cells. The cells were exposed to a range of drug concentrations for 72 hr exposure periods and then viability was assessed using a sulphorrhodamine B (SRB) assay. The SRB measures the total protein levels in the living cells. Proteins from dead cells are lysed and removed in the washing step before TCA fixation. However, it is possible that cells in the early stage of death still have their membrane integrity and therefore retain the protein contents inside. As a result, the optical density at 490 nm can sometimes be overestimated and the cytotoxicity underestimated. […] The SRB assay is now a well regarded assay and was recently approved by NCl as a standard assay for anticancer drug screening. […] Each IC50 value represents the average of three separate trials with each dosage level studied in triplicate.

[10] = target: T1, human serum albumin (HSA) (Homo sapiens, UniProt P02768); experiment: Binding of camptothecin lactone and carboxylate forms to human serum albumin, frequency-domain fluorescence lifetime spectroscopy
T1 sequence (P02768 25-609): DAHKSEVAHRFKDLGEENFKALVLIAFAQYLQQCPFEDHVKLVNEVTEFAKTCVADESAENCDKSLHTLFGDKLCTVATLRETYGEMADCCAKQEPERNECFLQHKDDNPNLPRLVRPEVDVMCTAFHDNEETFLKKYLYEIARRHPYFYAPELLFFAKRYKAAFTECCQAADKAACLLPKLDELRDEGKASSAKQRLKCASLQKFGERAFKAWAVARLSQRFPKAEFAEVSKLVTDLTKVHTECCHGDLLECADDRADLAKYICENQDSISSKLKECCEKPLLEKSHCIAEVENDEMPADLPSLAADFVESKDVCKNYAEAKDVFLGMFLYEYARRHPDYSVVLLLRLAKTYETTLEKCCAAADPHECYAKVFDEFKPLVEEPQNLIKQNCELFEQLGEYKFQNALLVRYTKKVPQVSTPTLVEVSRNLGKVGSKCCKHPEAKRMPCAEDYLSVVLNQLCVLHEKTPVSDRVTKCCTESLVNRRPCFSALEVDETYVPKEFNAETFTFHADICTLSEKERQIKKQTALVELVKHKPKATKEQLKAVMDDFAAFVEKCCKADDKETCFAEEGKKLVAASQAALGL

[11] = previously observed, Burke et al. 1993; cited from earlier work
[12] = target: T1, human serum albumin (HSA); conditions: PBS pH 7.4; cited from earlier work
[13] = whole human blood, 3 hours incubation, pH 7.4, 37° C., 1 μM

SMILES: CC[C@@]1(O)C(=O)OCc2c1cc1n(c2=O)Cc2cc3c(N)cccc3nc2-1 [9-Aminocamptothecin, 9-aminocamptothecin]
Percent Lactone in Human Blood after 3 Hours of Incubation [1]: 0.4%
% Lactone [1, 13]: approx. 0.3%
extent of hydrolysis [2]: > 99%
percentage of lactone at equilibrium ([3]; human plasma, pH 7.4, 37° C.): 0.2%
fraction converted to carboxylate ([3]; plasma): > 99.5%
Ratio of Lactone Level Mouse/Human [4]: 100
Percent Lactone in Mouse Blood after 3 Hours of Incubation [4]: 38%

SMILES: CCc1c2c(nc3ccc(OC(=O)N4CCC(N5CCCCC5)CC4)cc13)-c1cc3c(c(=O)n1C2)COC(=O)[C@]3(O)CC [CPT-11]
lactone level at equilibrium relative to 9-aminocamptothecin ([1]; whole human blood): approximately 40 fold
% Lactone [1, 13]: approx. 21.0%
percentage of lactone at equilibrium [5]: 21.0%

SMILES: CC[C@@]1(O)C(=O)OCc2c1cc1n(c2=O)Cc2cc3ccccc3nc2-1 [Camptothecin]
KDMPC overall association constant [6]: 100 M⁻¹
KDMPG overall association constant [7]: 100 M⁻¹
% Lactone [8]: approximately 12%
Percent Lactone in Human Blood after 3 Hours of Incubation [1]: 7%
lactone level at equilibrium relative to 9-aminocamptothecin ([1]; whole human blood): approximately 10 fold
% Lactone [1, 13]: approx. 6%
IC50 [9]: 12 ± 4 nM
HSA binding preference for the carboxylate relative to the lactone [10]: 200 fold
K, HSA binding of the carboxylate form ([10]; carboxylate form): 1.2e+06 M⁻¹
K, HSA binding of the lactone form ([10]; lactone form): ≈ 5.5×10^3 M^−1
decrease in affinity for DMPC upon opening of the lactone ring [11]: 3 fold
HSA binding affinity of carboxylate form relative to lactone form [12]: 200 fold and > 100 fold
percentage of lactone at equilibrium ([3]; human plasma, pH 7.4, 37° C.): 0.2%
t1/2 of lactone ring opening ([3]; human plasma, pH 7.4, 37° C.): 11 min
t1/2 of lactone ring opening [5]: 22 min
Ratio of Lactone Level Mouse/Human [4]: 3
Percent Lactone in Mouse Blood after 3 Hours of Incubation [4]: 20%

SMILES: CC[C@@]1(O)C(=O)OCc2c1cc1n(c2=O)Cc2c-1nc1ccc(O)cc1c2[Si](C)(C)C(C)(C)C [DB-67, reference compound]
KDMPC overall association constant [6]: 2,500 M^−1

SMILES: CCC(O)(CC(=O)O)c1cc2n(c(=O)c1CO)Cc1c-2nc2ccc(N)cc2c1[Si](C)(C)C(C)(C)C (stereo not drawn) [DB-90 carboxylate form, carboxylate form of 7-t-butyl-dimethylsilyl-10-aminohomocamptothecin]
KDMPC overall association constant [6]: 770 M⁻¹
KDMPG overall association constant [7]: 80 M⁻¹

SMILES: CCC(O)(CC(=O)O)c1cc2n(c(=O)c1CO)Cc1c-2nc2ccc(O)cc2c1[Si](C)(C)C(C)(C)C (stereo not drawn) [DB-91 carboxylate form, ring-opened or carboxylate form of 7-t-butyldimethylsilyl-10-hydroxyhomocamptothecin]
KDMPC overall association constant [6]: 700 M⁻¹
KDMPG overall association constant [7]: 100 M⁻¹

SMILES: CCc1c2c(nc3ccc(O)cc13)-c1cc3c(c(=O)n1C2)COC(=O)[C@]3(O)CC [SN-38, 7-ethyl-10-hydroxycamptothecin]
KDMPC overall association constant [6]: 300 M⁻¹
lactone level at equilibrium relative to 9-aminocamptothecin ([1]; whole human blood): approximately 40 fold
% Lactone [1, 13]: approx. 30%
percentage of lactone at equilibrium [5]: 19.5%

KDMPC overall association constant [6]: 10 M⁻¹
KDMPG overall association constant [7]: 50 M⁻¹
% Lactone [8]: approximately 12%
lactone level at equilibrium relative to 9-aminocamptothecin ([1]; male, human, 1 μM, pH 7.4): 20 fold
% Lactone ([1]; male, human, 3 h, 1 μM, pH 7.4): approx. 15%
SMILES: CC[C@@]1(O)C(=O)OCc2c1cc1n(c2=O)Cc2cc3c(CN(C)C)c(O)ccc3nc2-1 [Topotecan, reference compound]
percentage of lactone at equilibrium [5]: 11.9%
